Assay results as given in PMC8979739, “Phytochemical Profiling of the Leaf Extract of Ximenia americana var. caffra and Its Antioxidant, Antibacterial, and Antiaging Activities In Vitro and in Caenorhabditis elegans: A Cosmeceutical and Dermatological Approach” (Oxidative Medicine and Cellular Longevity, 2022).
Like-named read-outs stand apart in the source and are kept apart here.

Columns and labels:
[1] = DPPH assay
Procedure: (§1) Total phenolic content was estimated using the Folin–Ciocalteu method as described in a previous study, while antioxidant activity was determined using two colorimetric methods, DPPH assay and FRAP assay. The analysis was performed as in the previous study.

[2] = biological target: Porcine pancreatic elastase (Sus scrofa, UniProt P00772); assay: Elastase inhibition; type: biochemical
Procedure: This assay was performed according to a previous study. Porcine pancreatic elastase was used in this assay at stock concentration of 3.33 mg/mL in sterile water. N-Succinyl-[…]-nitroanilide ([…]) was used as a substrate and dissolved in buffer to make up 1.6 mM solution. A serial dilution of the extract with amount of 50 μL each was incubated with the enzyme for 15 min, and the substrate was added subsequently and makes up the final reaction mixture of 250 μL. Absorbance value was measured at 400 nm using a microplate reader. Each measurement was made in triplicate. The percentage of elastase inhibition (%) was calculated according to the formula: inhibition (%) = [(Acontrol - Asample/Acontrol) × 100]. […] A control: absorbance value of the elastase activity from negative control (solution without samples)

[3] = biological target: Collagenase from Clostridium histolyticum; assay: Collagenase inhibition; type: biochemical; conditions: mean ± SD
Procedure: The assay was performed according to a previous study. Collagenase was obtained from Clostridium histolyticum (ChC—EC.3.4.23.3), and the assay was performed in 50 mM Tricine buffer consisting of 400 mM NaCl and 10 mM CaCl2 (pH 7.5). Collagenase was dissolved in the buffer to achieve an enzyme activity concentration of 0.8 unit/mL, and the synthetic substrate N-[3-(2-furyl) acryloyl]-Leu-Gly-Pro-Ala (FALGPA) was dissolved in the buffer to make up the final concentration of 2 mM. Serial diluted samples were incubated with the enzyme for 15 min. After that, the substrate was added to each serial solution. Absorbance was measured using a microplate reader (Costar, 96) at 490 nm. Each measurement was made in triplicate. Percentage of collagenase inhibition (%) was calculated according to the formula: inhibition (%) = [(Acontrol − Asample/Acontrol) × 100].
A sample: absorbance value of the collagenase activity from samples or positive control (quercetin)
A control: absorbance value of the collagenase activity from negative control (solution without samples)

[4] = biological target: T1, hyaluronidase (Bos taurus, UniProt Q2YDK3); assay: Hyaluronidase inhibition; type: biochemical; conditions: mean ± SD
T1 sequence (Q2YDK3 36-553): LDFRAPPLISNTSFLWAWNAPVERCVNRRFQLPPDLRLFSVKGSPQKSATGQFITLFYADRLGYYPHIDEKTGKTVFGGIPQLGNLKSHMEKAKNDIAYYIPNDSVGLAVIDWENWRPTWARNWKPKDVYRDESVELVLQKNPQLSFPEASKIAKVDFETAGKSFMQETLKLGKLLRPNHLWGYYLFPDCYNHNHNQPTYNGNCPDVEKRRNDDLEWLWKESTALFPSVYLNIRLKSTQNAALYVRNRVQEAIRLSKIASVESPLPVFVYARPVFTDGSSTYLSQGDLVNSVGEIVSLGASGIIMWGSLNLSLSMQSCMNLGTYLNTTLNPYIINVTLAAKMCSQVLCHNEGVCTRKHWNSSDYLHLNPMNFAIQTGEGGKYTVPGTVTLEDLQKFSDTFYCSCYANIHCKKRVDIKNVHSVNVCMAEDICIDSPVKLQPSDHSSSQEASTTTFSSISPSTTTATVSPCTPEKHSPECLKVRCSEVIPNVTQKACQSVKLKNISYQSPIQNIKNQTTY
Procedure: The hyaluronidase inhibition assay was performed using hyaluronidase (1.5 mg/mL) and the substrate hyaluronic acid (1 mg/ml in 0.1 M acetate buffer; pH 3.5), according to a previous study. The reaction mixture was prepared consisting of 25 μL of CaCl2 (12.5 mM), 12.5 μL of each test sample (serial dilution), hyaluronidase (1.5 mg/mL), and 100 μL substrate hyaluronic acid. Afterwards, reaction mixture was placed in a water bath at 100°C for 3 min, and subsequently, 25 μL of 0.8 M KBO2 was added. After cooling to the room temperature, 800 μL DMAB (4 g DMAB in 40 mL acetic acid and 5 mL 10 N HCl) was added to the mixture following the incubation for 20 min. The absorbance was measured at 600 nm. Each measurement was made in triplicate. The percentage of hyaluronidase inhibition (%) was calculated according to the formula: inhibition (%) = [(Acontrol − Asample/Acontrol) × 100].
A sample: absorbance value of the hyaluronidase activity from samples or positive control (quercetin)
A control: absorbance value of the hyaluronidase activity from negative control (solution without samples)

[5] = biological target: mushroom tyrosinase (Agaricus bisporus, UniProt C7FF04); assay: Tyrosinase inhibition; type: biochemical; conditions: mean ± SD
Procedure: This assay was performed using mushroom tyrosinase and L-DOPA as substrates, according to a previous study with slight modifications. […] After adding L-DOPA, the reaction mixture was monitored at 475 nm for dopachrome formation using a microplate reader (Costar, 96). Each measurement was made in triplicate. The percentage of tyrosinase inhibition (%) was calculated according to the formula: inhibition (%) = [(Acontrol − Asample/Acontrol) × 100]. […] A control: absorbance value of the tyrosinase activity from negative control (solution without samples)

[6] = FRAP assay
Procedure: as §1

[7] = mean ± SD, read-out: Elastase IC50 (converted)

Chain of Porcine pancreatic elastase (P00772 27-266): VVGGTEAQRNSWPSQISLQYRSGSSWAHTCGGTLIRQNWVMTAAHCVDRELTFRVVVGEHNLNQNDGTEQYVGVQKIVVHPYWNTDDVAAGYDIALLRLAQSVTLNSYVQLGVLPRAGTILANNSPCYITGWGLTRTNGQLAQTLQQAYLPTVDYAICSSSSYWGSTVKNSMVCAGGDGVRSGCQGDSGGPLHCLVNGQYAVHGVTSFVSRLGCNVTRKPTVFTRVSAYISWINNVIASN
Chain of mushroom tyrosinase (C7FF04 2-392): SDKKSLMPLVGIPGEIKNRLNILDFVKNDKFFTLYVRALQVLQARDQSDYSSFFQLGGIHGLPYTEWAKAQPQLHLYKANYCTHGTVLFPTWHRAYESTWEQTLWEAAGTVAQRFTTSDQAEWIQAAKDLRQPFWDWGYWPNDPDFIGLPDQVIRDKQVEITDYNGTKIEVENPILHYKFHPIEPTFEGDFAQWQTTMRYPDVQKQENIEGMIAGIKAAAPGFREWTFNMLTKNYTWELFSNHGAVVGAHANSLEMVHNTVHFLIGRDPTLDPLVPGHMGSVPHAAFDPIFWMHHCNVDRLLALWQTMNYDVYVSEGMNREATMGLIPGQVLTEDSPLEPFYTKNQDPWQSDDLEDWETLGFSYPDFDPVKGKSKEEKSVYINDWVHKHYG

Row | Compound | Collagenase IC50 [3] [µg/mL] | IC50 [2, 7] [µM] | further results
1 | O=C1O[C@H]([C@@H](O)CO)C(O)=C1O [Ascorbic acid] | – | – | DPPH (EC50) [1]: 2.92 ± 0.29 µg/mL
2 | O.Oc1cc(O)c2c(c1)O[C@H](c1ccc(O)c(O)c1)[C@@H](O)C2 [Catechin] | 29.33 ± 2.4 | – | Elastase IC50 ([2]; mean ± SD): 15.00 ± 5.9 µg/mL; Hyaluronidase IC50 [4]: 22.99 ± 0.2 µg/mL; Tyrosinase IC50 [5]: 22.54 ± 4.61 µg/mL
3 | Oc1cc(O)c2c(c1)O[C@H](c1ccc(O)c(O)c1)[C@H](O)C2 [Epicatechin] | 65.96 ± 7.8 | 145 | –
4 | O=c1cc(CO)occ1O [Kojic acid, reference compound] | – | – | IC50 [2]: 152 µM
5 | O=c1c(O)c(-c2ccc(O)c(O)c2)oc2cc(O)cc(O)c12 [Quercetin] | – | – | FRAP [6]: 24.04 ± 1.23 mM FeSO4/mg extract
6 | O=C(O)[C@]1(O)C[C@@H](O)[C@@H](O)[C@H](O)C1 [Quinic acid] | 52.78 ± 1.8 | 748 | –
7 | C[C@@H]1O[C@@H](OC[C@H]2O[C@@H](Oc3c(-c4ccc(O)c(O)c4)oc4cc(O)cc(O)c4c3=O)[C@H](O)[C@@H](O)[C@@H]2O)[C@H](O)[C@H](O)[C@H]1O [Rutin] | 63.46 ± 3.4 | 199 | –
